Source: patent US20090253634A1, “Methods and Compositions for the Treatment of Gastrointestinal Disorders” (MICROBIA, INC., priority 2005, published 2009)
Bridge positions count the residues as written; N and C are the ends. Peptide text beside a SMILES is read from it.

Legend:
gastrointestinal transit = assay: murine gastrointestinal transit (GIT) assay, acute and chronic dosing; format: in vivo, mice
Protocol: In order to determine whether the peptides increase the rate of gastrointestinal transit, the peptides and controls were tested using a murine gastrointestinal transit (GIT) assay (Moon et al. Infection and Immunity 25:127, 1979). In this assay, charcoal, which can be readily visualized in the gastrointestinal tract is administered to mice after the administration of a test compound. The distance traveled by the charcoal is measured and expressed as a percentage of the total length of the […].
Mice were fasted with free access to water for 12 to 16 hours before the treatment with peptide or control buffer. The peptides were orally administered at 1 μg/kg-1 mg/kg of peptide in buffer ([…] pH 7.5) 7 minutes before being given an oral dose of 5% Activated Carbon (Aldrich 242276-250G). Control mice were administered buffer only before being given a dose of Activated Carbon. After 15 minutes, the mice were sacrificed and their intestines from the stomach to the cecum were dissected. The total length of the intestine as well as the distance traveled from the stomach to the charcoal front was measured for each animal and the results are expressed as the percent of the total length of the intestine traveled by the charcoal front. All results are reported as the average of 10 mice±standard deviation. A comparison of the distance traveled by the charcoal between the mice treated with peptide versus the mice treated with vehicle alone was performed using a Student's t test and a statistically significant difference was considered for P<0.05. P-values are calculated using a two-sided T-Test assuming unequal variances.
The identical experiment was performed to determine if SEQ ID NO:3 is effective in a chronic dosing treatment regimen. Briefly, 8 week old CD1 female mice are dosed orally once a day for 5 days with either SEQ ID NO:3 (0.06 mg/kg or 0.25 mg/kg in 20 mM Tris pH 7.5) or vehicle alone (20 mM Tris pH 7.5). On the 5th day, a GIT assay is performed identical to that above except 200 μl of a 10% charcoal solution is administered. […] The results are shown side by side with acute dosing (1 day).

[1] = oral bioavailability in mice, radioimmunoassay (RIA) detection; set-up: species or system CD-1 mice; details: female, CD-1, mouse, in vivo, 8 mg/kg intravenous, read-out: AUCi.v.,(0-4h) (converted)
Protocol: Oral bioavailability was also determined using a radioimmunoassay (RIA) detection method. Female CD-1 mice (Charles River, Wilmington, Mass.) weighing approximately 25g (7-8 weeks old) or female CD rats (Charles River, Wilmington, Mass.) weighing approximately 153 g were included in this study. Monoclonal antibody, 20C1 (Brandwein et al. 1985 Infect Immun. 47:242-246), which recognizes SEQ ID NO:7 and ^125I labeled-SEQ ID NO:7, a labeled tracer, were used in these experiments. The labeled tracer was purified by HPLC using a Waters C-18u Bondapak® column (25 cm) previously equilibrated with 10 mM ammonium acetate pH 5.8. […] Blood was drawn from all dosed animals by retro-orbital eye bleeding at specific intervals and test compound levels were analyzed by radioimmunoassay (RIA). […] Radioactivity was measured in a LS 6500 scintillation counter (Beckman-Coulter). The binding efficiency is defined as the percent radioactivity in the B0 sample compared to the input counts. The percent bound in each sample was calculated by the equation: […]
A standard curve was prepared by plotting % B/B0 as a function of the log SEQ ID NO:3 concentration. […] The area under the curve from T=0 to 4 hours (AUC0-4h) was calculated by the software for both p.o. and i.v. dosed animals. […] Oral Bioavailabilty (F) is calculated using the equation: […]

[2] = oral bioavailability in rats, radioimmunoassay (RIA) detection; details: female, CD, rat, in vivo
Protocol: Oral bioavailability was also determined using a radioimmunoassay (RIA) detection method. Female CD-1 mice (Charles River, Wilmington, Mass.) weighing approximately 25g (7-8 weeks old) or female CD rats (Charles River, Wilmington, Mass.) weighing approximately 153 g were included in this study. Monoclonal antibody, 20C1 (Brandwein et al. 1985 Infect Immun. 47:242-246), which recognizes SEQ ID NO:7 and ^125I labeled-SEQ ID NO:7, a labeled tracer, were used in these experiments. The labeled tracer was purified by HPLC using a Waters C-18u Bondapak® column (25 cm) previously equilibrated with 10 mM ammonium acetate pH 5.8. A gradient from 0 to 25% acetonitrile was applied to the column in 60 min, followed by isocratic elution at 25% acetonitrile for another 20 min. This method separated two monoiodinated forms from each other and from unlabeled precursor (Thompson et al. 1985 Anal Biochem. 148:26-36). […] The labeled tracer bad a specific activity of 2200 Ci/mmol. The tracer was stored in aliquots at −20° C. Animals were fasted overnight before administration of compounds. Animals received SEQ ID NO:3 (rats—10 mg/kg; mice 8 mg/kg) or vehicle alone (20 mM Tris-HCl, ph7.5) intravenously or orally. Blood was drawn from all dosed animals by retro-orbital eye bleeding at specific intervals and test compound levels were analyzed by radioimmunoassay (RIA). SEQ ID NO:3 was extracted from the serum or plasma using Amersham Biosciences Amprep C18 columns (100 mg). Samples (80 μL) were first diluted to 0.5 mL with start buffer (8% methanol, 0.095% TFA in water) and applied to C18 columns previously conditioned with 1 mL methanol and equilibrated with 2 mL of start buffer. […] Radioactivity was measured in a LS 6500 scintillation counter (Beckman-Coulter). The binding efficiency is defined as the percent radioactivity in the B0 sample compared to the input counts. The percent bound in each sample was calculated by the equation: […]
A standard curve was prepared by plotting % B/B0 as a function of the log SEQ ID NO:3 concentration. […] Oral Bioavailabilty (F) is calculated using the equation: […]

C[C@@H]1NC(=O)[C@@H]2CCCN2C(=O)[C@H](CC(N)=O)NC(=O)[C@@H]2CSSC[C@H](N)C(=O)N[C@H]3CSSC[C@H](NC1=O)C(=O)N[C@@H]([C@@H](C)O)C(=O)NCC(=O)N[C@H](C(=O)N[C@@H](Cc1ccc(O)cc1)C(=O)O)CSSC[C@H](NC(=O)[C@H](Cc1ccc(O)cc1)NC(=O)[C@H](CCC(=O)O)NC3=O)C(=O)N2 [SEQ ID NO:3] (H-CCEYCCNPACTGCY-OH; disulfide 1-6, 2-10, 5-13; N-terminus and C-terminus assumed)
intestinal transit rates versus Tris buffer or equivalent dose of Zelnorm (gastrointestinal transit; acute, chemically synthesized peptides, FIG. 4b): increase intestinal transit rates more than either Tris buffer alone or an equivalent dose of Zelnorm®
gastrointestinal transit rate (gastrointestinal transit; acute, oral, SEQ ID NO:4 and Zelnorm 0.1 mg/kg, FIG. 3a, 3b): increase gastrointestinal transit rate
effect in mouse gastrointestinal motility assay upon chronic dosing (gastrointestinal transit; oral once a day for 5 days, SEQ ID NO:3 0.06 or 0.25 mg/kg, FIG. 4c): effective
AUC [1]: 27700 ng·h/mL
AUC ([2]; 10 mg/kg intravenous, read-out: AUCi.v.,(0-6h) (converted)): 23700 ng·h/mL
AUC ([2]; 10 mg/kg oral, read-out: AUCp.o.,(0-6h) (converted)): 48.3 ng·h/mL
bioavailability ([2]; oral, 10 mg/kg, over 6 hours): 0.2%
